Test results: patent publication US20250242064A1, “CXCR4-TARGETING COMPOUNDS, AND METHODS OF MAKING AND USING THE SAME” (PROVINCIAL HEALTH SERVICES AUTHORITY, priority 2022, published 2025)
Where a SMILES comes first, the peptide text is derived from it. Bridges are numbered along the chain shown (N, C = ends). [ ]: non-standard residue; d: D form. The star is where a group is joined. X3 = O=C(O)CN1CCN(CC(=O)O)CCN(CC(=O)N[C@@H](CS(=O)(=O)O)C(=O)N[C@@H](CCCCNC(=O)CCCc2ccc(Br)cc2)C(=O)*)CCN(CC(=O)O)CC1; 2Nal = N[C@@H](Cc1ccc2ccccc2c1)C(=O)O; Lys(iPr) = CC(C)NCCCC[C@H](N)C(=O)O

Assay: in vivo
Set-up: species or system mice
Conditions: male, mouse, iv, total radioactivity
Procedure, shortened: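 Male NRG mice bearing subcutaneous Z138 mantle cell lymphoma xenografts (5×10^6 cells, grown to 200-300 mm^3) injected intravenously under isoflurane with 68Ga-labelled tracers. Harvested tissues weighed and gamma-counted; uptake expressed as % ID/g.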

[1] = NOD.Cg-Rag1tm1Mom Il2rgtm1Wjl/SzJ (NRG), Biodistribution: Adrenals
[2] = NOD.Cg-Rag1tm1Mom Il2rgtm1Wjl/SzJ (NRG), Biodistribution: Blood
[3] = NOD.Cg-Rag1tm1Mom Il2rgtm1Wjl/SzJ (NRG), Biodistribution: Bone
[4] = NOD.Cg-Rag1tm1Mom Il2rgtm1Wjl/SzJ (NRG), Biodistribution: Brain
[5] = NOD.Cg-Rag1tm1Mom Il2rgtm1Wjl/SzJ (NRG), Biodistribution: Heart
[6] = NOD.Cg-Rag1tm1Mom Il2rgtm1Wjl/SzJ (NRG), Biodistribution: Kidneys
[7] = NOD.Cg-Rag1tm1Mom Il2rgtm1Wjl/SzJ (NRG), Biodistribution: Liver
[8] = NOD.Cg-Rag1tm1Mom Il2rgtm1Wjl/SzJ (NRG), Biodistribution: Lungs
[9] = NOD.Cg-Rag1tm1Mom Il2rgtm1Wjl/SzJ (NRG), Biodistribution: Muscle
[10] = NOD.Cg-Rag1tm1Mom Il2rgtm1Wjl/SzJ (NRG), Biodistribution: Pancreas
[11] = NOD.Cg-Rag1tm1Mom Il2rgtm1Wjl/SzJ (NRG), Biodistribution: Small Intestine
[12] = NOD.Cg-Rag1tm1Mom Il2rgtm1Wjl/SzJ (NRG), Biodistribution: Spleen
[13] = NOD.Cg-Rag1tm1Mom Il2rgtm1Wjl/SzJ (NRG), Biodistribution: Stomach
[14] = NOD.Cg-Rag1tm1Mom Il2rgtm1Wjl/SzJ (NRG), Biodistribution: Testes
[15] = NOD.Cg-Rag1tm1Mom Il2rgtm1Wjl/SzJ (NRG), Biodistribution: Z138 Tumor
[16] = NOD.Cg-Rag1tm1Mom Il2rgtm1Wjl/SzJ (NRG), Ratio Tumor-to-Blood
[17] = NOD.Cg-Rag1tm1Mom Il2rgtm1Wjl/SzJ (NRG), Ratio Tumor-to-Bone
[18] = NOD.Cg-Rag1tm1Mom Il2rgtm1Wjl/SzJ (NRG), Ratio Tumor-to-Kidney
[19] = NOD.Cg-Rag1tm1Mom Il2rgtm1Wjl/SzJ (NRG), Ratio Tumor-to-Muscle
[20] = NOD.Cg-Rag1tm1Mom Il2rgtm1Wjl/SzJ (NRG), Ratio Tumor-to-Pancreas
[21] = NOD.Cg-Rag1tm1Momll2rgtm1Wjl/SzJ (NRG), Biodistribution: Blood
[22] = NOD.Cg-Rag1tm1Momll2rgtm1Wjl/SzJ (NRG), Biodistribution: Stomach
[23] = NOD.Cg-Rag1tm1Momll2rgtm1Wjl/SzJ (NRG), Biodistribution: Testes
[24] = NOD.Cg-Rag1tm1Momll2rgtm1Wjl/SzJ (NRG), Ratio Tumor-to-Bone
[25] = NOD.Cg-Rag1tm1Momll2rgtm1Wjl/SzJ (NRG), Ratio Tumor-to-Kidney
[26] = NOD.Cg-Rag1tm1Momll2rgtm1Wjl/SzJ (NRG), Ratio Tumor-to-Muscle
[27] = NOD.Cg-Rag1tm1Momll2rgtm1Wjl/SzJ (NRG), Ratio Tumor-to-Pancreas

CC(C)NCCCC[C@H](NC(=O)[C@H]1CCC(=O)N[C@@H](CCCCNC(=O)[C@H](CCCCNC(=O)CCCc2ccc(Br)cc2)NC(=O)[C@H](CS(=O)(=O)O)NC(=O)CN2CCN(CC(=O)O)CCN(CC(=O)O)CCN(CC(=O)O)CC2)C(=O)N[C@@H](Cc2ccc(O)cc2)C(=O)N[C@@H](CCCCNC(C)C)C(=O)N[C@H](CCCNC(=N)N)C(=O)N[C@@H](Cc2ccc3ccccc3c2)C(=O)N[C@H](C)C(=O)N1)C(N)=O [[^177Lu]Lu-BL34L20, metal not drawn] (K(X3)Y[Lys(iPr)][dR][2Nal][dA][dE][Lys(iPr)]-NH2; lactam N-7)
tissue uptake at 1 h [1]: 2.44 %ID/g | tissue uptake at 3 h [1]: 2.29 %ID/g | tissue uptake at 24 h [1]: 1.1 %ID/g | tissue uptake at 72 h [1]: 0.81 %ID/g | tissue uptake at 120 h [1]: 1.24 %ID/g | tissue uptake at 1 h [2]: 14.1 %ID/g | tissue uptake at 3 h [2]: 11.8 %ID/g | tissue uptake at 1 h [3]: 1.02 %ID/g | tissue uptake at 3 h [3]: 0.78 %ID/g | tissue uptake at 24 h [3]: 0.29 %ID/g | tissue uptake at 72 h [3]: 0.26 %ID/g | tissue uptake at 120 h [3]: 0.3 %ID/g | tissue uptake at 1 h [4]: 0.22 %ID/g | tissue uptake at 3 h [4]: 0.2 %ID/g | tissue uptake at 24 h [4]: 0.06 %ID/g | tissue uptake at 72 h [4]: 0.03 %ID/g | tissue uptake at 120 h [4]: 0.02 %ID/g | tissue uptake at 1 h [5]: 3.05 %ID/g | tissue uptake at 3 h [5]: 3.01 %ID/g | tissue uptake at 24 h [5]: 0.76 %ID/g | tissue uptake at 72 h [5]: 0.25 %ID/g | tissue uptake at 120 h [5]: 0.18 %ID/g | tissue uptake at 1 h [6]: 4.5 %ID/g | tissue uptake at 3 h [6]: 3.98 %ID/g | tissue uptake at 24 h [6]: 1.53 %ID/g | tissue uptake at 72 h [6]: 0.4 %ID/g | tissue uptake at 120 h [6]: 0.33 %ID/g | tissue uptake at 1 h [7]: 2.8 %ID/g | tissue uptake at 3 h [7]: 3.16 %ID/g | tissue uptake at 24 h [7]: 0.84 %ID/g | tissue uptake at 72 h [7]: 0.44 %ID/g | tissue uptake at 120 h [7]: 0.19 %ID/g | tissue uptake at 1 h [8]: 8.78 %ID/g | tissue uptake at 3 h [8]: 6.6 %ID/g | tissue uptake at 24 h [8]: 1.9 %ID/g | tissue uptake at 72 h [8]: 0.68 %ID/g | tissue uptake at 120 h [8]: 0.72 %ID/g | tissue uptake at 1 h [9]: 1.13 %ID/g | tissue uptake at 3 h [9]: 0.93 %ID/g | tissue uptake at 24 h [9]: 0.27 %ID/g | tissue uptake at 72 h [9]: 0.15 %ID/g | tissue uptake at 120 h [9]: 0.08 %ID/g | tissue uptake at 1 h [10]: 1.59 %ID/g | tissue uptake at 3 h [10]: 1.25 %ID/g | tissue uptake at 24 h [10]: 1.38 %ID/g | tissue uptake at 72 h [10]: 0.12 %ID/g | tissue uptake at 120 h [10]: 0.23 %ID/g | tissue uptake at 1 h [11]: 1.16 %ID/g | tissue uptake at 3 h [11]: 1.02 %ID/g | tissue uptake at 24 h [11]: 0.53 %ID/g | tissue uptake at 72 h [11]: 0.11 %ID/g | tissue uptake at 120 h [11]: 0.08 %ID/g | tissue uptake at 1 h [12]: 1.92 %ID/g | tissue uptake at 3 h [12]: 1.86 %ID/g | tissue uptake at 24 h [12]: 1.12 %ID/g | tissue uptake at 72 h [12]: 0.95 %ID/g | tissue uptake at 120 h [12]: 0.77 %ID/g | tissue uptake at 1 h [13]: 0.52 %ID/g | tissue uptake at 3 h [13]: 0.71 %ID/g | tissue uptake at 1 h [14]: 1.78 %ID/g | tissue uptake at 3 h [14]: 2.81 %ID/g | tissue uptake at 1 h [15]: 5.94 %ID/g | tissue uptake at 3 h [15]: 15.4 %ID/g | tissue uptake at 24 h [15]: 27.4 %ID/g | tissue uptake at 72 h [15]: 23.6 %ID/g | tissue uptake at 120 h [15]: 23.6 %ID/g | tissue to tissue ratio at 1 h [16]: 0.42 | tissue to tissue ratio at 3 h [16]: 1.3 | tissue to tissue ratio at 24 h [16]: 9.65 | tissue to tissue ratio at 72 h [16]: 53.9 | tissue to tissue ratio at 120 h [16]: 71.5 | tissue to tissue ratio at 1 h [17]: 3.63 | tissue to tissue ratio at 3 h [17]: 10.5 | tissue to tissue ratio at 1 h [18]: 1.32 | tissue to tissue ratio at 3 h [18]: 3.93 | tissue to tissue ratio at 1 h [19]: 5.29 | tissue to tissue ratio at 3 h [19]: 16.7 | tissue to tissue ratio at 72 h [19]: 234 | tissue to tissue ratio at 1 h [20]: 3.77 | tissue to tissue ratio at 3 h [20]: 12.6 | tissue uptake at 24 h [21]: 2.84 %ID/g | tissue uptake at 72 h [21]: 0.45 %ID/g | tissue uptake at 120 h [21]: 0.36 %ID/g | tissue uptake at 24 h [22]: 0.41 %ID/g | tissue uptake at 72 h [22]: 0.13 %ID/g | tissue uptake at 120 h [22]: 0.07 %ID/g | tissue uptake at 24 h [23]: 1.01 %ID/g | tissue uptake at 72 h [23]: 0.65 %ID/g | tissue uptake at 120 h [23]: 0.56 %ID/g | tissue to tissue ratio at 24 h [24]: 45.3 | tissue to tissue ratio at 72 h [24]: 44.3 | tissue to tissue ratio at 120 h [24]: 27 | tissue to tissue ratio at 24 h [25]: 18 | tissue to tissue ratio at 72 h [25]: 60.3 | tissue to tissue ratio at 120 h [25]: 75.5 | tissue to tissue ratio at 24 h [26]: 102 | tissue to tissue ratio at 120 h [26]: 357 | tissue to tissue ratio at 24 h [27]: 70.9 | tissue to tissue ratio at 72 h [27]: 206 | tissue to tissue ratio at 120 h [27]: 257
